In patent US9315494B2, “Alkyl-amide-substituted pyridyl compounds useful as modulators of IL-12, IL-23 and/or IFNα responses” (Bristol-Myers Squibb Company, priority 2012, dated 2016):
Like-named read-outs stand apart in the source and are kept apart here.

Legend:
[1] = test system: IL-23-stimulated STAT-dependent luciferase reporter in Kit225 T cells; experiment: Kit225 T cell assay, IL-23 stimulated STAT-dependent luciferase reporter; type: cell-based, human
Experimental: (§1) Kit225 T cells with a stably-integrated STAT-dependent luciferase reporter were plated in RPMI (Gibco) containing 10% heat-inactivated FBS (Gibco) and 100 U/mL PenStrep (Gibco). The cells were then stimulated with either 20 ng/mL human recombinant IL-23 or 200 U/mL human recombinant IFNα (PBL InterferonSource) for 5-6 hours. Luciferase expression was measured using the STEADY-GLO® Luciferase Assay System (Promega) according to the manufacturer's instructions.

[2] = test system: IFNα-stimulated STAT-dependent luciferase reporter in Kit225 T cells; experiment: Kit225 T cell assay, IFNα stimulated STAT-dependent luciferase reporter; type: cell-based, human
Experimental: as §1

[3] = Kit225 T cells, 20 ng/mL human recombinant IL-23, 5-6 hours, luciferase, read-out: IL23 (Kit225 T Cell Inhibition Data)
[4] = Kit225 T cells, 200 U/mL human recombinant IFNα, 5-6 hours, luciferase, read-out: IFNα (Kit225 T Cell Inhibition Data)

Row | Structure (SMILES) | IC50 [1, 3] [nM] | IC50 [2, 4] [nM] | IC50 ([1]; Homo sapiens, KIT225, read-out: IL23 (Kit225 T Cell Inhibition Data)) [nM] | IC50 ([2]; Homo sapiens, KIT225, read-out: IFNα (Kit225 T Cell Inhibition Data)) [nM]
1 | CNC(=O)c1cnc(Nc2ccccn2)cc1Nc1ccc(F)cc1OC [Example 147] | 1060 | 520 |  | 
2 | CNC(=O)c1cnc(Nc2cc(C)ccn2)cc1Nc1ccc(F)cc1OC [Example 148] | 751 | 300 |  | 
3 | CNC(=O)c1cnc(Nc2cc(F)ccn2)cc1Nc1ccc(F)cc1OC [Example 149] | 1190 | 330 |  | 
4 | CNC(=O)c1cnc(Nc2cccc(-c3ccccc3)n2)cc1Nc1ccc(F)cc1OC [Example 150] | 2700 | 1520 |  | 
5 | CNC(=O)c1cnc(Nc2ccc(F)cn2)cc1Nc1ccc(F)cc1OCF [Example 151] | 1140 | 240 |  | 
6 | CNC(=O)c1cnc(Nc2cc(Cl)ccn2)cc1Nc1ccc(F)cc1OC [Example 153] | 1330 | 970 |  | 
7 | CNC(=O)c1cnc(Nc2cccc(OC)n2)cc1Nc1ccc(F)cc1OC [Example 154] | 784 | 560 |  | 
8 | CNC(=O)c1cnc(Nc2cc(C#N)ccn2)cc1Nc1ccc(F)cc1OC [Example 155] | 275 | 190 |  | 
9 | CNC(=O)c1cnc(Nc2cccc(C(F)(F)F)n2)cc1Nc1ccc(F)cc1OC [Example 156] | 1650 | 720 |  | 
10 | CNC(=O)c1cnc(Nc2ccc(C(F)(F)F)cn2)cc1Nc1ccc(F)cc1OC [Example 157] | 5200 | 9860 |  | 
11 | CNC(=O)c1cnc(Nc2ccc(Cl)cn2)cc1Nc1ccc(F)cc1OC [Example 158] | 4440 | 2100 |  | 
12 | CNC(=O)c1cnc(Nc2ccc(C)cn2)cc1Nc1ccc(F)cc1OC [Example 159] | 1150 | 1400 |  | 
13 | CNC(=O)c1cnc(Nc2ccc3[nH]ccc3n2)cc1Nc1ccc(F)cc1OC [Example 160] | 1240 | 1070 |  | 
14 | CNC(=O)c1cnc(Nc2ccc(OC)cn2)cc1Nc1ccc(F)cc1OC [Example 161] | 760 | 610 |  | 
15 | CNC(=O)c1cnc(Nc2ccc(C#N)cn2)cc1Nc1ccc(F)cc1OCF [Example 162] | 215 | 460 |  | 
16 | CNC(=O)c1cnc(Nc2cc(C)c(C#N)c(C)n2)cc1Nc1ccc(F)cc1OC [Example 163] | 306 | 230 |  | 
17 | CNC(=O)c1cnc(Nc2cccc(-n3ccccc3=O)n2)cc1Nc1cc(F)cc(F)c1OC [Example 164] | 4410 | 2990 |  | 
18 | CNC(=O)c1cnc(Nc2cc(C#N)ccn2)cc1Nc1ccc(F)cc1OCF [Example 166] | 157 | 90 |  | 
19 | CNC(=O)c1cnc(Nc2cc(-n3ccccc3=O)ccn2)cc1Nc1cc(F)cc(F)c1OC [Example 167] | 510 | 310 |  | 
20 | CNC(=O)c1cnc(Nc2cc(-n3ccccc3=O)ccn2)cc1Nc1ccc(F)cc1OC [Example 168] | 1420 | 1220 |  | 
21 | CNC(=O)c1cnc(Nc2cc(OC)ccn2)cc1Nc1cc(F)cc(F)c1OC [Example 169] | 352 | 440 |  | 
22 | CNC(=O)c1cnc(Nc2cc(OC)ccn2)cc1Nc1ccc(F)cc1OC [Example 170] | 1620 | 1720 |  | 
23 | CNC(=O)c1cnc(Nc2ccc(F)cn2)cc1Nc1cccc(F)c1OC [Example 171] | 175 | 90 |  | 
24 | CNC(=O)c1cnc(Nc2ccccn2)cc1Nc1cccc(F)c1OC [Example 172] | 89.2 | 50 |  | 
25 | CNC(=O)c1cnc(Nc2cc(C#N)ccn2)cc1Nc1cccc(F)c1OC [Example 173] | 81.9 | 50 |  | 
26 | CNC(=O)c1cnc(Nc2ccc(F)cn2)cc1Nc1cccc(C)c1C(N)=O [Example 174] | 1040 | 560 |  | 
27 | CNC(=O)c1cnc(Nc2ccc(F)cn2)cc1Nc1cccc(F)c1C(N)=O [Example 175] | 434 | 500 |  | 

Row | Structure (SMILES) | IC50 [1, 3] [nM] | IC50 [2, 4] [nM] | IC50 ([1]; Homo sapiens, KIT225, read-out: IL23 (Kit225 T Cell Inhibition Data)) [nM] | IC50 ([2]; Homo sapiens, KIT225, read-out: IFNα (Kit225 T Cell Inhibition Data)) [nM]
28 | CNC(=O)c1cnc(Nc2cnccn2)cc1Nc1ccccc1C(N)=O [Example 178] | 1630 | 1880 |  | 
29 | CNC(=O)c1cnc(Nc2cc(C#N)ccn2)cc1Nc1cnccc1OC [Example 179] | 2730 | 3250 |  | 
30 | CNC(=O)c1cnc(Nc2ccc3ccccc3n2)cc1Nc1ccccc1C(C)(C)O [Example 180] | 5090 | 2580 |  | 
31 | CNC(=O)c1cnc(Nc2ccccn2)cc1Nc1ccccc1C(C)(C)O [Example 183] | 9720 | 5970 |  | 
32 | CNC(=O)c1cnc(Nc2ccc(F)cn2)cc1Nc1ccccc1 [Example 184] |  |  | 7980 | 4110
33 | CNC(=O)c1cnc(Nc2ccc(F)cn2)cc1Nc1ccccc1C1CC1 [Example 185] | 2580 | 2900 |  | 
34 | CNC(=O)c1cnc(Nc2ccc(F)cn2)cc1Nc1ccccc1-c1nnc[nH]1 [Example 186] | 7810 | 7850 |  | 
35 | CNC(=O)c1cnc(Nc2ccc(F)cn2)cc1Nc1ccc(N2CCOCC2)cc1OC [Example 187] | 2820 | 2580 |  | 
36 | CNC(=O)c1cnc(Nc2ccc(F)cn2)cc1Nc1ccccc1OC [Example 190] | 367 | 510 |  | 
37 | CNC(=O)c1cnc(Nc2ccc(F)cn2)cc1Nc1ccc(CCO)cc1 [Example 191] | 3070 | 3580 |  | 
38 | CNC(=O)c1cnc(Nc2ccc(F)cn2)cc1Nc1ccc(OC)cc1OC [Example 192] | 565 | 540 |  | 
39 | CNC(=O)c1cnc(Nc2ccc(F)cn2)cc1Nc1ccc(C)cc1 [Example 193] | 3670 | 3200 |  | 
40 | CNC(=O)c1cnc(Nc2ccc(F)cn2)cc1Nc1ccc(OC)cc1 [Example 195] | 3130 | 3520 |  | 
41 | CNC(=O)c1cnc(Nc2ccc(F)cn2)cc1Nc1ccc(F)cc1 [Example 196] | 4380 | 6970 |  | 
42 | CNC(=O)c1cnc(Nc2ccc(F)cn2)cc1Nc1cccc(C)c1 [Example 197] | 11900 | 5830 |  | 
43 | CNC(=O)c1cnc(Nc2ccc(F)cn2)cc1Nc1ccc(C2CC2)cc1 [Example 198] | 4530 | 5300 |  | 
44 | CNC(=O)c1cnc(Nc2ccc(F)cn2)cc1Nc1cc(F)ccc1OC [Example 199] | 897 | 660 |  | 
45 | CNC(=O)c1cnc(Nc2ccc(F)cn2)cc1Nc1ccc(C(=O)N2CCCC2)cc1 [Example 200] | 904 | 1300 |  | 
46 | CNC(=O)c1cnc(Nc2ccc(F)cn2)cc1Nc1ccc(S(C)(=O)=O)cc1 [Example 201] | 2670 | 6970 |  | 
47 | CNC(=O)c1cnc(Nc2ccc(F)cn2)cc1Nc1ccc(F)c(F)c1 [Example 204] | 9320 | 8130 |  | 
48 | CNC(=O)c1cnc(Nc2ccc(F)cn2)cc1Nc1ccc(F)cc1SC [Example 207] | 3300 | 2040 |  | 
49 | CNC(=O)c1cnc(Nc2ccc(F)cn2)cc1Nc1ccccc1O [Example 208] | 1850 | 2410 |  | 
50 | CNC(=O)c1cnc(Nc2ccc(F)cn2)cc1Nc1ccccc1OC(F)(F)F [Example 209] | 1580 | 1310 |  | 
51 | CNC(=O)c1cnc(Nc2ccc(F)cn2)cc1Nc1ccccc1SC(F)(F)F [Example 210] | 1680 | 860 |  | 
52 | CNC(=O)c1cnc(Nc2ccc(F)cn2)cc1Nc1cccc2[nH]ccc12 [Example 212] | 4170 | 2030 |  | 
53 | CCc1ccc(Nc2cc(Nc3ccc(N4CCOCC4)cn3)ncc2C(=O)NC)cc1 [Example 213] | 1870 | 1310 |  | 
